Columns and labels:
[1] = heart failure patients, normal or low aldosterone, added to ACE inhibitor, loop diuretic and digoxin; cited from earlier work
monocytes = experiment: Monocyte/macrophage differentiation and functional changes (RT-PCR or microarray analysis); assay type: cell-based, Rodent and human; conditions: for cell proliferation and maturation of monocytes: 10^-7 M cortisol, 10^-9 M aldosteron
Method: Rodent and human monocytes were studied during their differentiation process towards macrophages in the presence or absence of different, physiologically relevant levels of cortisol or corticosterone, as well as aldosterone, respectively.
Glucocorticoid receptor (GR) and mineralocorticoid receptor occupancy was modulated with either eplerenone or ZK91587 or canrenoate (as MR-antagonists) or RU486 (GR-antagonist). […] (dehydrocorticosterone in rodent cells) was added as a substrate for 11-beta-HSD1. Metyrapone was used to block 11-beta-HSD1 reductase activity. Inhibitors were added with 10^-7 M cortisol, 10^-9 M aldosteron concentration, HSD inhibitors were added in 10^-6 M concentration.
Monocytes were first stimulated with either lipopolysaccharide (LPS) or Tumor-necrosis-factor-alpha (TNF-apha), interferone-gamma (IFN-gamma), interleukin-13 (IL-13) or interleukin-4 (IL-4) before differentiation into macrophages in the presence of above different agonist/antagonist combinations. In order to evaluate the linkage between inflammation and metabolic disease, mature macrophages were also stimulated with fatty acids via the Toll-like-receptor 4.

[2] = test system: Vascular smooth muscle cells; experiment: GR or MR blockade and 11-beta-HSD-2 inhibition in vascular cells; assay type: cell-based; conditions: physiologically relevant levels of aldosterone
Method: Vascular smooth muscle cells were incubated with varying combinations of a MR or GR-antagonist and physiologically relevant levels of cortisol or aldosterone; importantly, adosterone and cortisol were also used in combination to mimic specific interactions between the ligand-receptor and co-factor recruitment as observed in vitro and in vivo.

[3] = target: T1, mineralocorticoid receptor (Homo sapiens, UniProt P08235); conditions: relative to aldosterone; cited from earlier work
T1 sequence (P08235 1-984): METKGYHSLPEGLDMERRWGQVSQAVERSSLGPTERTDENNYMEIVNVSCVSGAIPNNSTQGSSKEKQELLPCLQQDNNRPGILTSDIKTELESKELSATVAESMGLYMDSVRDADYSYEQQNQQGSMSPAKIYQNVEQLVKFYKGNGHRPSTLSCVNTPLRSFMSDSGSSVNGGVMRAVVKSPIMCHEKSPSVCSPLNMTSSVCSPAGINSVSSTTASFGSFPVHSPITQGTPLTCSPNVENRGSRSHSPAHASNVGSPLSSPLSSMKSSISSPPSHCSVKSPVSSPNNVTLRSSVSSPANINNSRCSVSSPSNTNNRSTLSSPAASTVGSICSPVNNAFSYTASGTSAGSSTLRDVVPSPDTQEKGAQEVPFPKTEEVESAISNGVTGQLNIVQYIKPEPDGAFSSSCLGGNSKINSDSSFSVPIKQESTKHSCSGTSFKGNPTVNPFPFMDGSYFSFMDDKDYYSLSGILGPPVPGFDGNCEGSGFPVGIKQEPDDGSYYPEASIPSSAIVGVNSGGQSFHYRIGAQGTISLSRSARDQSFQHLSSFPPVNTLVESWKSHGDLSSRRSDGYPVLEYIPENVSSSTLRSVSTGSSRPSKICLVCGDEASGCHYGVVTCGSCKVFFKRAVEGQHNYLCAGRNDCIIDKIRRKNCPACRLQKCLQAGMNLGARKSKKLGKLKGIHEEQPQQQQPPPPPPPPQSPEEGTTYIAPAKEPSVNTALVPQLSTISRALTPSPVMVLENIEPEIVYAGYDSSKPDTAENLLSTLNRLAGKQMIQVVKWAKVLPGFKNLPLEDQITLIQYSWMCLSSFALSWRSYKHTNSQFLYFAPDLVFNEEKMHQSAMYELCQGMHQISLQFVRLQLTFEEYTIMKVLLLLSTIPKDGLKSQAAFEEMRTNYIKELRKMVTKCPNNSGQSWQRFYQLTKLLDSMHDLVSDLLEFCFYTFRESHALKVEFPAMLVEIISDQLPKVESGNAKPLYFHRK

| Compound | decrease of post-myocardial infarction morbidity and mortality rate [1] | vascular endothelial growth factor (VEGF) and ICAM-1 induction [2] | cell proliferation and maturation of monocytes (monocytes) | other results |
| --- | --- | --- | --- | --- |
| CC(=O)S[C@@H]1CC2=CC(=O)CC[C@]2(C)[C@H]2CC[C@@]3(C)[C@@H](CC[C@@]34CCC(=O)O4)[C@H]12 [spironolactone] | about 30% |  |  |  |
| CC(C)(C(=O)c1cccnc1)c1cccnc1 [metyrapone] |  |  |  | effect on macrophage differentiation and function (monocytes; HSD inhibitors added in 10^-6 M concentration): the effects of aldosterone at the high affinitity MR were enhanced or were able to override glucocorticoid mediated effects |
| COC(=O)[C@@H]1CC2=CC(=O)CC[C@]2(C)[C@@]23O[C@@H]2C[C@@]2(C)[C@@H](CC[C@@]24CCC(=O)O4)[C@H]13 [eplerenone] | ~15% | reversed this effect |  |  |
| C[C@]12CCC(=O)C=C1CC[C@@H]1[C@@H]2C(=O)C[C@@]2(C)[C@H]1CC[C@]2(O)C(=O)CO [cortisone] |  |  | induced cell proliferation and maturation of monocytes |  |
| C[C@]12CCC(=O)C=C1CC[C@@H]1[C@@H]2[C@@H](O)C[C@]2(C=O)[C@@H](C(=O)CO)CC[C@@H]12 [aldosterone] |  | induced vascular endothelial growth factor (VEGF) as well as ICAM-1 | induced cell proliferation and maturation of monocytes | macrophage phenotype (NfkappaB, RANK-ligand, interleukin-6, ROS, plasminogen activator inhibitor-1) (monocytes; induction with aldosterone): more proinflammatory macrophage phenotype |
| C[C@]12CCC(=O)C=C1CC[C@@H]1[C@@H]2[C@@H](O)C[C@@]2(C)[C@H]1CC[C@]2(O)C(=O)CO [cortisol] |  |  | induced cell proliferation and maturation of monocytes | affinity to the mineralocorticoid receptor, higher than aldosterone [3]: 10-30 fold |

Source: patent EP2243494A1, “Pharmaceutical composition, comprising a steroid-dehydrogenase-reductase inhibitor, and a mineralocorticoid receptor antagonist” (OntoChem GmbH, priority 2009, dated 2010)
